row,SMILES,melting point [°C]
1,COc1cc(O)c(C(=O)C=Cc2sccc2C)c(OC)c1,124
2,N#CC1CN1C(=O)CNC(N)=O (stereo not given),110 to 114
3,CCC1CCC(C2CCC(CC)CC2)CC1 (stereo not given),-6
4,COc1cccc2c1CC(N=[N+]=[N-])C(O)C2 (stereo not given),83 to 84
5,CCCC(CCC)NC(=O)c1ccc2oc(OCC)nc2c1,128 to 129
6,CCC(CCNC(=O)C(C#N)=Cc1cc(O)c(O)c(OC)c1)NC(=O)C(C#N)=Cc1cc(O)c(O)c(OC)c1 (stereo not given),256
7,COc1cc2c(cc1OC)N(C)C(=O)CN=C2c1cccc(C)c1,119 to 121
8,Nc1nc2c(Cc3ccsc3)c(I)[nH]c2c(=O)[nH]1,> 260
9,CCCN(c1ncnc2[nH]cnc12)n1cccc1,181 to 183
10,C#CC(C)(C)OC(=O)N1CCNCC1,35 to 38
11,COc1ncccc1-c1[nH]c2ccccc2c1C1CCNCC1,110 to 115
12,O=C1C(=Cc2cccnc2)N2CCC1CC2,113
13,COC(=O)c1cc(Cl)cc2c1OC(C)(C)C(=O)N2,178 to 179
14,CCCC(=O)c1ccc(N2CCOCC2)cc1,64.5 to 65.5
15,CC(C)Nc1nc2cc(F)c(F)c(F)c2n1[C@@H]1O[C@H](C)[C@@H](O)[C@H]1O,175 to 178
16,CCCCOCc1cc2c3ccccc3[nH]c(=O)n2n1,170 to 172
17,CCN1CCC2(c3cccc(OC)c3)Cc3[nH]c(C(N)=O)c(C)c3CC2C1 (stereo not given),176 to 178
18,CCCn1c(=O)c2[nH]c(C3CCCS3)nc2n(CCC)c1=O (stereo not given),224 to 226

# Next, values leading:
row,melting point [°C],SMILES
1,197 to 199,CCCc1c(OCc2ccccc2)ccc2c(=O)cc(CO)[nH]c12
2,168 to 170,O=C1c2ccccc2C(=O)N1n1cccc1-c1ccccc1
3,174 to 175,CCN(c1nc(C)cc(C)n1)c1ccc(C(C)C)cc1S(C)(=O)=O
4,278 to 280,O=C(O)c1nc2cc(N3CCN(Cc4ccccc4)CC3)c([N+](=O)[O-])cc2[nH]c1=O
5,180 to 184,CC1=NN(c2ccc(Cl)cc2)C(c2ccc(N)c(C)c2)C1 (stereo not given)
6,230,O=C1CC(c2cccc(-n3ccnc3)c2)=Nc2cc(N3CCOC3=O)c(-c3ccc(F)cc3)cc2N1
7,72 to 75,O=C(OCCN1CCCCCC1)c1ccccc1Nc1ccnc2cc(C(F)(F)F)ccc12
8,244 to 246,Cc1cccc(-c2c3c(cc4ccc5c(c24)OCO5)C(=O)NC3)c1
9,165 to 167,COc1ccc(C(=O)Nc2ccc(C3(CNC(=O)C(C)(C)C)CCCC3)cc2)cc1OC
10,251 to 252,c1cc(-c2nc(-c3cnccn3)n[nH]2)ccn1
11,127 to 129,COC(=O)C(CO)N(Cc1ccccc1[N+](=O)[O-])S(=O)(=O)c1ccc(OC)cc1 (stereo not given)
12,106 to 107,CCOC(=O)c1cc(=O)c(Oc2ccc(OC)cc2)co1
13,186,CC(C)CNS(=O)(=O)c1cccc(NC(=O)c2cnn3c(C(F)F)cc(-c4ccc(C(F)(F)F)cc4)nc23)c1
14,141 to 148,O=C(CN1CCOCC1)Nc1ccc2c(c1)Cc1cn[nH]c1-2
15,68 to 71,CC(=O)OCC1OC(n2cnc3c(NCC(c4ccccc4)c4ccccc4)nc(Cl)nc32)C(OC(C)=O)C1OC(C)=O (stereo not given)
16,230 to 233,CN(C)c1ccc(-c2n[nH]c(=O)c3cc(N(C)C)ccc23)cc1
17,99 to 102,OC(Cn1cncn1)(c1ccc(F)cc1F)C(F)(F)SC1CC1 (stereo not given)
18,245 to 246,O=C(CCl)Nc1ccc2c(c1NC(=O)c1ccccc1F)C(=O)c1ccccc1C2=O
19,169 to 170,CC(C)Cn1c(CNC(=O)OC(C)(C)C)c(-c2ccccc2)c2cc(CO)ccc2c1=O
20,132 to 133,c1ccc(-c2nc(-c3ccc(OCCCn4ccnc4)cc3)no2)cc1
21,248 to 251,CCn1c(=O)[nH]c2cc3c(N4CCN(C(=O)Nc5ccc(Oc6ccccc6)cc5)CC4)ncnc3cc21
22,215 to 217,O=C(O)c1csc(Cn2cc(C3c4ccc(Br)cc4C=Cc4cc(Br)ccc43)c(=S)[nH]c2=O)n1
